# Read-outs that look alike come from different tables or passages of the source.
# Experiments:
# [1] = antilipemic and anticholesterolemic action in rats on fatty diet, 14 days; type: in vivo, rat (male SPF Wistar); conditions: for Drop (nonvolatile triglycerides) / Final value cholesterol / Final value nonvolatile triglycerides / Drop (cholesterol): 14 days; for Final value cholesterol / Final value nonvolatile triglycerides: blood serum; for reduction of the triglycerides compared with Clofibrat: in a substantially lower dosage than Clofibrat
# Experimental: (§1) The antilipemic and anticholesterolemic action of the compounds according to the invention and of Clofibrat as a standard of comparison was tested on each of 10 male SPF Wistar strain rats of body weights from 80 to 90 g. For test purposes the animals were kept individually apart with restricted feed but water as desired. The animals of control group I were given 10 g basal diet daily, those of control group II, the test groups as well as the Clofibrat comparison group received in addition to the basal diet a fatty composition consisting of 40 g/kg butter with 5 g/kg cholesterol. The test substances conforming to the examples, and also the Clofibrat, were suspended in a 0.2% methylcellulose solution and administered by probang. The final cholesterol value and the value of the nonvolatile triglycerides was determined after 14 days treatment. The analyses were performed in the blood serum by means of an SMA 12/60 auto-analyzer.
# [2] = cited from earlier work
# [3] = mouse; comparison, literature data; 10080 min; cited from earlier work
# [4] = acute toxicity (LD50) in rats, oral; conditions: in vivo, rat
# Experimental: (§2) The acute toxicity of the preparations according to the invention was tested on CFJ strain mice and Sprague-Dawley rats.
# (§3) The test substances according to Examples 2,5,6,8 and 10 were administered orally as a 5% suspension in methylcellulose by means of a probang, while the test material according to Example 4, was administered in a 8% gelatin suspension. The test materials for Examples 1 and 3 were administered orally by probang in an aqueous kaolin paste to rats (5 female and 5 male rats weighing 140 to 185 grams each).
# (§4) The period of observation was 7 days.
# [5] = over-all tolerance and clinical pattern during the rat lipid trial; type: in vivo, rat (male SPF Wistar)
# Experimental: as §1
# There were no deaths. […] No difference could be determined in hearing tests.
# [6] = action on peripheral circulation in narcotized dogs; type: in vivo, dog
# Description: According to Examples 2, 3 and 4, the peripheral circulation is increased some 20-30% of its initial level by the test substances according to those examples.
# [7] = acute toxicity (LD50) in mice, oral; conditions: in vivo, mouse
# Experimental: as §2, §3, §4
# [8] = action on blood pressure in narcotized dogs; conditions: into the duodenum, doses up to 200 mg/kg
# [9] = oral, 5% suspension in methylcellulose, 7 days, according to Litchfield and Wilcoxon
# [10] = versus control groups and Clofibrat comparison group
SMILES,Drop (nonvolatile triglycerides) ([1]; 100 mg/kg) [%],Final value cholesterol ([1]; 100 mg/kg) [mg %],Final value nonvolatile triglycerides ([1]; 100 mg/kg),"increase of peripheral circulation, of its initial level [6]","LD50 at 168 h [7, 9] [mg/kg]",systolic and diastolic blood pressure [8],also measured
"CCOC(=O)C(C)(C)Oc1ccc(Cl)cc1 [Clofibrat, ethyl 2-(p-chlorophenoxy) isobutyrate, reference compound]",–,–,–,–,–,–,"Drop (nonvolatile triglycerides) ([1]; 250 mg/kg): 20.6%; Final value cholesterol ([1]; 250 mg/kg): 133.3 mg %; Final value nonvolatile triglycerides ([1]; 250 mg/kg): 107.7; lowering of cholesterol ([1]; fatty diet rats, in these experimental trials): absolutely inactive; effect on cholesterol value ([2]; fatty diet rat test, Berger et al. 1969): does not lower but even raises the cholesterol value; lowering of cholesterol ([2]; reported in the literature): frequently been reported in the literature; LD50 [3]: 1150 mg/kg"
"Cn1c(=O)c2c(ncn2CCOC(=O)C(C)(C)Oc2ccc(Cl)cc2)n(C)c1=O [Example 1, 1-(7-theophyllinyl)-2-ethyl [2-(p-chlorophenoxy)-isobutyrate]]",17.3,95.2,112.2,up to 10%,–,–,"Drop (cholesterol) ([1]; 100 mg/kg): 22.7%; lowering of increased cholesterol values (in words) ([1]; in comparison to Clofibrat): with greater significance lower the increased cholesterol values; reduction of the triglycerides (in words) ([1]; rat, in vivo): comparatively good reduction of the triglycerides; LD50 at 168 h ([4]; oral by probang, aqueous kaolin paste, 7 days observation): > 4000 mg/kg; over-all tolerance ([5]; rat, in vivo): no differences in the over-all tolerance; peripheral circulation activity (in words) [6]: only slight activity"
"Cn1c(=O)c2c(ncn2CC(O)COC(=O)COc2ccc(Cl)cc2)n(C)c1=O (stereo not shown) [Example 2, 1-(7-theophyllinyl)-2-hydroxy-3-propyl (p-chlorophenoxyacetate)]",45.9,130.3,73.4,20-30%,2150,did not acutely affect the systolic and diastolic blood pressure to any substantial degree,"reduction of the triglycerides compared with Clofibrat [1]: more than twice as large a reduction of the triglycerides; over-all tolerance [5, 10]: no differences in the over-all tolerance"
"Cn1c(=O)c2c(ncn2CC(COC(=O)COc2ccc(Cl)cc2)OC(=O)COc2ccc(Cl)cc2)n(C)c1=O (stereo not shown) [Example 3, 1-(7-theophyllinyl)-2,3-propylidenedi(p-chlorophenoxy acetate)]",44.2,122.0,75.7,20-30%,–,did not acutely affect the systolic and diastolic blood pressure to any substantial degree,"reduction of the triglycerides compared with Clofibrat [1]: more than twice as large a reduction of the triglycerides; LD50 at 168 h ([4]; po): > 4000 mg/kg; over-all tolerance [5, 10]: no differences in the over-all tolerance"
"Cn1c(=O)c2c(ncn2CCOC(=O)C(Oc2ccc(Cl)cc2)Oc2ccc(Cl)cc2)n(C)c1=O [Example 4, 1-(7-theophyllinyl)-2-ethyl bis-(p-chlorophenoxy) acetate]",–,111.0,179.7,20-30%,–,did not acutely affect the systolic and diastolic blood pressure to any substantial degree,Final value cholesterol ([1]; 35 mg/kg): 132.3 mg %; Final value nonvolatile triglycerides ([1]; 35 mg/kg): 148.3; Drop (cholesterol) ([1]; 100 mg/kg): 9.8%; LD50 at 168 h ([7]; po): 1910 mg/kg; weight increase ([5]; 100 mg/kg dosage): reduced increase in weight
Cn1c(=O)c2c(ncn2CCOC(=O)COc2ccc(Cl)cc2)n(C)c1=O [Example 5],–,–,–,–,1510,–,–
CC(Oc1ccc(Cl)cc1)C(=O)OCCn1cnc2c1c(=O)n(C)c(=O)n2C (stereo not shown) [Example 6],–,–,–,–,1540,–,–
CC(Oc1cccc(C(F)(F)F)c1)C(=O)OCCn1cnc2c1c(=O)n(C)c(=O)n2C (stereo not shown) [Example 8],–,–,–,–,2140,–,–
Cn1c(=O)c2c(ncn2CCOC(=O)COc2ccc(F)cc2)n(C)c1=O [Example 10],–,–,–,–,1680,–,–

# From patent US3984413A, “Phenoxyalkanecarboxylic acid esters of hydroxyalkyltheophyllines and method for their manufacture” (L. Merckle KG, priority 1973, dated 1976)
